Here are results for two compounds from ChEMBL document CHEMBL5360586, “Purpurascenines A-C, Azepino-Indole Alkaloids from Cortinarius purpurascens: Isolation, Biosynthesis, and Activity Studies on the 5-HT2A Receptor” (J Nat Prod, 2023).

Active and inactive are the calls of the source. The calls are words filed in the database; no cut-off is given here.

Experiment [1] concerns PC-3. Kind of experiment: Antiproliferative activity against human PC-3 cells assessed as inhibition of cell growth at 100 uM measured after 48 hrs by resazurin staining based analysis. Type of experiment: functional. The arrangement: scale not given: the % may be the effect or the level left. (In general: The colour change of resazurin is a common sign of viable cells or microbes.)

Experiment [2] relates to PC-3. Kind of experiment: Antiproliferative activity against human PC-3 cells assessed as inhibition of cell growth measured after 48 hrs by resazurin staining based analysis. The class given is functional. The note with it: PC-3, 48 h.
Experiment [3] has as its system HCT-116. Kind of experiment: Antiproliferative activity against human HCT-116 cells assessed as inhibition of cell growth measured after 48 hrs by resazurin staining based analysis. The class given is functional. The note with it: HCT-116, 48 h.
The subject of experiment [4] is MCF7. Kind of experiment: Antiproliferative activity against human MCF7 cells assessed as inhibition of cell growth measured after 48 hrs by resazurin staining based analysis. The class given is functional. The note with it: MCF7, 48 h.
The target in experiment [5] is T1, 5-hydroxytryptamine receptor 2A (Homo sapiens, UniProt P28223). Kind of experiment: Agonist activity at N-terminal HA-tagged human 5HT2A receptor transfected in CHO-K1 cells co-expressing C-terminal EYFP measured for 5.5 hrs by ONE-Glo reagent based luciferase assay. The class given is functional, cell-based.
T1 sequence (P28223 whole entry): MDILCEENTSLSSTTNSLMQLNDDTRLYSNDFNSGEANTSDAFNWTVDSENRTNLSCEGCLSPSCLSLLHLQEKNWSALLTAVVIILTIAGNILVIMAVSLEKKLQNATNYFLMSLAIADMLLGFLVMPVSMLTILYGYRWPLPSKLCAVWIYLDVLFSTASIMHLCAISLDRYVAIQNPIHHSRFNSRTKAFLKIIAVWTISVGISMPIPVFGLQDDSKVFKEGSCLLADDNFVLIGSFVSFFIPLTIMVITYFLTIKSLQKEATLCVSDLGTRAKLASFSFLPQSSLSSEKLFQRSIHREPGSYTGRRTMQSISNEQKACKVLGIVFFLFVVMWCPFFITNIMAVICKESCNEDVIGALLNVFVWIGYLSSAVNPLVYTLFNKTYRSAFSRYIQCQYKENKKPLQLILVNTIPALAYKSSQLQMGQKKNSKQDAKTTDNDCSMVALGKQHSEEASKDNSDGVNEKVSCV
Experiment [6] deals with T1, 5-hydroxytryptamine receptor 2A. As to the kind of experiment: Agonist activity at N-terminal HA-tagged human 5HT2A receptor transfected in CHO-K1 cells co-expressing C-terminal EYFP measured for 5.5 hrs in presence of serotonin by ONE-Glo reagent based luciferase assay. Type of experiment: functional, cell-based.
Experiment [7] shares this target. As to the kind of experiment: Agonist activity at N-terminal HA-tagged human 5HT2A receptor transfected in CHO-K1 cells co-expressing C-terminal EYFP assessed as maximal efficacy at 10^-11 M to 10^-5 M measured for 5.5 hrs by ONE-Glo reagent based luciferase assay relative to control. Type of experiment: functional, cell-based.
Experiment [8] has the same target. Kind of experiment: Agonist activity at N-terminal HA-tagged human 5HT2A receptor transfected in CHO-K1 cells co-expressing C-terminal EYFP assessed as maximal efficacy at 10^-4 M measured for 5.5 hrs in presence of serotonin by ONE-Glo reagent based luciferase assay. Type of experiment: functional, cell-based. The note with it: filed as agonist, dose 0.0001 M.

Experiment [9] deals with HCT-116. Kind of experiment: Antiproliferative activity against human HCT-116 cells assessed as inhibition of cell growth upto 100 uM measured after 48 hrs by resazurin staining based analysis. Type of experiment: functional.
Experiment [10] relates to PC-3. Kind of experiment: Antiproliferative activity against human PC-3 cells assessed as inhibition of cell growth upto 100 uM measured after 48 hrs by resazurin staining based analysis. The class given is functional.
The subject of experiment [11] is MCF7. Kind of experiment: Antiproliferative activity against human MCF7 cells assessed as inhibition of cell growth upto 100 uM measured after 48 hrs by resazurin staining based analysis. Type of experiment: functional.

Consider `CC1=N[C@H](C(=O)O)Cc2c[nH]c3c(O)ccc1c23`, for which, in experiment [1], the Activity is around 30%. Besides, the IC50 in [2], in [3] and in experiment [4] was above 100 µM throughout. Further, the figures for the EC50 in experiment [5] and in [6] were above 10 µM and 0.0254 µM, respectively. Besides, the Emax in [7] came to 22%; in experiment [8], 52%.

For the compound `NCCc1c[nH]c2ccc(O)cc12`, the result in experiment [9], in experiment [10] and in experiment [11] was inactive.

One may read the IC50 as the midpoint of a concentration-inhibition curve. The EC50 is the concentration at which the effect is half-maximal. Usually Emax stands for the size of the effect at its maximum, as opposed to the concentration needed.
